In patent US9932350B2, “Inhibitors of IRAK4 activity” (MERCK SHARP & DOHME CORP., priority 2014, dated 2018):

Target: GST tagged IRAK4 (Homo sapiens (Human), UniProt Q9NWZ3)
Test: IRAK4 Kinase Assay (IMAP fluorescence polarization)
Format: biochemical
Details: 0.5 nM GST tagged IRAK4, 100 μM ATP, 30 minutes at 25° C.
Procedure: The kinase activity of IRAK4 is determined by its ability to catalyze the phosphorylation of a fluorescent polypeptide substrate. The extent of phosphorylation is measured using the IMAP technology (Molecular Devices) where the phosphorylated fluorescent substrate binds to the large M(III)-based nanoparticles which reduces the rotational speed of the substrate and thus increases its fluorescent polarization (FP).
20 μL reaction mixture contains 10 mM TriHCl, pH 7.2, 0.5 nM GST tagged IRAK4 (SignalChem), 100 nM fluorescent peptide substrate (RP7030, Molecular Devices), 100 μM ATP, 1 mM DDT, 1 mM MgCl2, and 0.01% Tween 20. The reaction is initiated by the addition of ATP. After incubation for 30 minutes at 25° C., 60 μL of Progressive IMAP Reagent (Molecular Devices) is added to stop the reaction. Change in RP7030's FP is determined by a FP reader (Analyst HT, LJL BioSystems).

Sequence of GST tagged IRAK4 (Q9NWZ3 whole entry): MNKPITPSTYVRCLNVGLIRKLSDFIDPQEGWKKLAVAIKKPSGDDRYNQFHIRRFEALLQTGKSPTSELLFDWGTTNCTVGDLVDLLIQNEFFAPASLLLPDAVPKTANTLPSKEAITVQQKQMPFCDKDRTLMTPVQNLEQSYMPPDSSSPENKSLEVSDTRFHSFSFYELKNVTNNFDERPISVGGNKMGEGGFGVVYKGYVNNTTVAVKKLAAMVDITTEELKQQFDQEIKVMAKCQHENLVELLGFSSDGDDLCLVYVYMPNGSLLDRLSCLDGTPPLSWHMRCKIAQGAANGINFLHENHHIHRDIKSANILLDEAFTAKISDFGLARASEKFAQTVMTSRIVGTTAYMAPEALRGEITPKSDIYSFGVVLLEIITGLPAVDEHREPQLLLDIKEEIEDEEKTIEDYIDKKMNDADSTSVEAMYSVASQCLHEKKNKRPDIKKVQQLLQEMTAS

Row | IC50 | SMILES
1 | 0.132 µM | N#Cc1ccc2ncnc(N[C@H]3CC[C@H](N4CCCC(F)(F)C4)CC3)c2c1 [Example 3-33, 4-{[trans-4-(3,3-difluoropiperidin-1-yl)cyclohexyl]amino} quinazoline-6-carbonitrile]
2 | 0.026 µM | CC1CC(N2CCOCC2)CCC1Nc1ncnc2ccc(C#N)cc12 (single isomer, unassigned) [Example 8-3, 4-{[(1S,2R,4S or 1R,2S,4R)-2-methyl-4-(morpholin-4-yl)cyclohexyl]amino} quinazoline-6-carbonitrile]
3 | 0.014 µM | CC1(C(=O)N2CCN([C@H]3CC[C@H](Nc4ncnc5ccc(C#N)cc45)CC3)CC2)COC1 [Example 6-9, 4-[(trans-4-{4-[(3-methyloxetan-3-yl)carbonyl]piperazin-1-yl}cyclohexyl)amino] quinazoline-6-carbonitrile]
4 | 0.025 µM | CC1(O)CCN([C@H]2CC[C@H](Nc3ncnc4ccc(C#N)cc34)CC2)C1 (stereo partly drawn) [Example 3-36, 4-{[trans-4-(3-hydroxy-3-methylpyrrolidin-1-yl)cyclohexyl]amino} quinazoline-6-carbonitrile]
5 | 0.012 µM | CC(C)(F)C(=O)N1CCN([C@H]2CC[C@H](Nc3ncnc4ccc(C#N)cc34)CC2)CC1 [Example 6-5, 4-({trans-4-[4-(2-fluoro-2-methylpropanoyl)piperazin-1-yl]cyclohexyl}amino) quinazoline-6-carbonitrile]
6 | 0.014 µM | CC(F)C(=O)N1CCN([C@H]2CC[C@H](Nc3ncnc4ccc(C#N)cc34)CC2)CC1 (stereo partly drawn) [Example 6-7, 4-({trans-4-[4-(2-fluoropropanoyl)piperazin-1-yl]cyclohexyl}amino) quinazoline-6-carbonitrile]
7 | 0.016 µM | COCC(=O)N1CCN([C@H]2CC[C@H](Nc3ncnc4ccc(C#N)cc34)CC2)CC1 [Example 6-10, 4-({trans-4-[4-(methoxyacetyl)piperazin-1-yl]cyclohexyl}amino) quinazoline-6-carbonitrile]
8 | 0.009 µM | N#Cc1ccc2ncnc(N[C@H]3CC[C@H](N4CCC(CN5CCOCC5)CC4)CC3)c2c1 [Example 3-43, 4-({trans-4-[4-(mopholin-4-ylmethyl)piperidin-1-yl]cyclohexyl}amino) quinazoline-6-carbonitrile]
9 | 0.014 µM | CC1CC(N2CCOCC2)CCC1Nc1ncnc2ccc(C#N)cc12 (single isomer, unassigned) [Example 8-1, 4-{[(1R,2R,4R or 1S,2S,4S)-2-methyl-4-(morpholin-4-yl)cyclohexyl]amino}quinazoline-6-carbonitrile]
10 | 0.013 µM | N#Cc1ccc2ncnc(N[C@H]3CC[C@H](N4CCN(C(=O)C5CC5(F)F)CC4)CC3)c2c1 (stereo partly drawn) [Example 6-14, 4-[(trans-4-{4-[(2,2-difluorocyclopropyl)carbonyl]piperazin-1-yl}cyclohexyl)amino] quinazoline-6-carbonitrile]
11 | 0.051 µM | CO[C@@H]1CCN([C@H]2CC[C@H](Nc3ncnc4ccc(C#N)cc34)CC2)C1 [Example 3-40, 4-({trans-4-[(3R)-3-methoxypyrrolidin-1-yl]cyclohexyl}amino) quinazoline-6-carbonitrile]
12 | 0.009 µM | N#Cc1ccc2ncnc(N[C@H]3CC[C@H](N4CCN(C(=O)CCO)CC4)CC3)c2c1 [Example 6-22, 4-({trans-4-[4-(3-hydroxypropanoyl)piperazin-1-yl]cyclohexyl}amino) quinazoline-6-carbonitrile]
13 | 0.015 µM | N#Cc1ccc2ncnc(N[C@H]3CC[C@H](N4CCCC4)CC3)c2c1 [Example 3-44, 4-{[trans-4-(pyrrolidin-1-yl)cyclohexyl]amino} quinazoline-6-carbonitrile]
14 | 0.011 µM | CC(=O)N1CCN([C@H]2CC[C@H](Nc3ncnc4ccc(C#N)cc34)CC2)CC1 [Example 6-2, 4-{[trans-4-(4-acetylpiperazin-1-yl)cyclohexyl]amino} quinazoline-6-carbonitrile]
15 | 0.256 µM | N#Cc1ccc2ncnc(N[C@H]3CC[C@H](N4CCOC(C(F)(F)F)C4)CC3)c2c1 (single isomer, unassigned) [Example 3-48, 4-({trans-4-[(2R or 2S)-2-(trifluoromethyl)morpholin-4-yl]cyclohexyl}amino) quinazoline-6-carbonitrile]
16 | 0.579 µM | N#Cc1ccc2ncnc(N[C@H]3CC[C@H](N4C[C@H]5CC[C@@H](C4)O5)CC3)c2c1 [Example 3-50, 4-({trans-4-[(1R,5S)-8-oxa-3-azabicylco[3.2.1]oct-3-yl]cyclohexyl}amino) quinazoline-6-carbonitrile]
17 | 0.003 µM | N#Cc1ccc2ncnc(N[C@H]3CC[C@H](N4CCC(F)(F)CC4)CC3)c2c1 [Example 3-54, 4-{[trans-4-(4,4-difluoropiperidin-1-yl)cyclohexyl]amino} quinazoline-6-carbonitrile]

Continued, compound first:

Row | SMILES | IC50
18 | CC1CN([C@H]2CC[C@H](Nc3ncnc4ccc(C#N)cc34)CC2)CC(C)O1 (single isomer, unassigned) [Example 3-14, 4-({trans-4-[(2S,6S or 2R,6R)-2,6-dimethylmorpholin-4-yl]cyclohexyl}amino) quinazoline-6-carbonitrile] | 0.033 µM
19 | N#Cc1ccc2ncnc(NC3CCC(N4CCCC(C(F)(F)F)C4)CC3)c2c1 (single isomer, unassigned) [Example 3-4, 4-({cis or trans-4-[(3R or S)-3-(trifluoromethyl)piperidin-1-yl]cyclohexyl}amino) quinazoline-6-carbonitrile] | 0.503 µM
20 | N#Cc1ccc2ncnc(NC3CCC(N4CCCC(C(F)(F)F)C4)CC3)c2c1 (single isomer, unassigned) [Example 3-3, 4-({cis or trans-4-[(3R or S)-3-(trifluoromethyl)piperidin-1-yl]cyclohexyl}amino) quinazoline-6-carbonitrile] | 0.007 µM
21 | Fc1ccc2ncnc(N[C@H]3CC[C@H](N4CCOCC4)CC3)c2c1 [Example 2-9, 6-fluoro-N-[trans-4-(morpholin-4-yl)cyclohexyl]quinazolin-4-amine] | 0.113 µM
22 | N#Cc1ccc2ncnc(N[C@H]3CC[C@H](N4CCOC(CO)C4)CC3)c2c1 (single isomer, unassigned) [Example 3-11, 4-({trans-4-[(2R or 2S)-2-(hydroxymethyl)morpholin-4-yl]cyclohexyl}amino) quinazoline-6-carbonitrile] | 0.007 µM
23 | N#Cc1ccc2ncnc(N[C@H]3CC[C@H](N4CCOCC4)CC3)c2c1 [Example 2-7, 4-{[trans-4-(morpholin-4-yl)cyclohexyl]amino} quinazoline-6-carbonitrile] | 0.006 µM
24 | CC1CN([C@H]2CC[C@H](Nc3ncnc4ccc(C#N)cc34)CC2)CC(C)O1 (single isomer, unassigned) [Example 3-15, 4-({trans-4-[2S,6S or 2R,6R)-2,6-dimethylmorpholin-4-yl]cyclohexyl}amino) quinazoline-6-carbonitrile] | 0.058 µM
25 | N#Cc1ccc2ncnc(N[C@H]3CC[C@H](N4CCC(F)CC4)CC3)c2c1 [Example 3-19, 4-{[trans-4-(4-fluoropiperidin-1-yl)cyclohexyl]amino} quinazoline-6-carbonitrile] | 0.003 µM
26 | C[C@H]1COCCN1[C@H]1CC[C@H](Nc2ncnc3ccc(C#N)cc23)CC1 [Example 3-28, 4-({trans-4-[(3S)-3-methylmorpholin-4-yl]cyclohexyl}amino) quinazolin-6-carbonitrile] | 0.047 µM
27 | Brc1ccc2ncnc(O[C@H]3CC[C@H](N4CCOCC4)CC3)c2c1 [Example 2-1, 6-Bromo-4-{[trans-4-(morpholin-4-yl)cyclohexyl]oxy}quinazoline] | 0.04 µM
28 | N#Cc1ccc2ncnc(NC3CCC(N4CCOCC4)[C@@H]4C[C@H]34)c2c1 (stereo partly drawn) [Example 2-18, 4-{[(1S,6R)-5-(morpholin-4-yl)bicyclo[4.1.0]hept-2-yl]amino}quinazoline-6-carbonitrile] | 0.056 µM
29 | CN(C)[C@H]1CC[C@H](Nc2ncnc3ccc(OCC#N)cc23)CC1 [Example 2-15] | 0.012 µM
30 | C[C@@H]1CN([C@H]2CC[C@H](Nc3ncnc4ccc(C#N)cc34)CC2)C[C@H](C)O1 [Example 3-9, 4-({trans-4-[(2R,6S)-2,6-dimethylmorpholin-4-yl]cyclohexyl}amino) quinazoline-6-carbonitrile] | 0.005 µM
31 | CS(=O)(=O)N1CCN([C@H]2CC[C@H](Nc3ncnc4ccc(C#N)cc34)CC2)CC1 [Example 3-20, 4-({trans-4-[4-(methylsulfonyl)piperazin-1-yl]cyclohexyl}amino) quinazoline-6-carbonitrile] | 0.008 µM
32 | CC1CN([C@H]2CC[C@H](Nc3ncnc4ccc(C#N)cc34)CC2)CCO1 (single isomer, unassigned) [Example 3-17, 4-({trans-4-[(2S or 2R)-2-methylmorpholin-4-yl]cyclohexyl}amino) quinazoline-6-carbonitrile] | 0.004 µM
33 | CC1OCCN([C@H]2CC[C@@H](Nc3ncnc4ccc(C#N)cc34)CC2)C1C (stereo partly drawn) [Example 3-8, 4-{[cis-4-(2,3-dimethylmorpholin-4-yl)cyclohexyl]amino} quinazoline-6-carbonitrile] | 2.55 µM
34 | Fc1cc2ncnc(N[C@H]3CC[C@H](N4CCOCC4)CC3)c2cc1Br [Example 2-11, 6-bromo-7-fluoro-N-[trans-4-(morpholin-4-yl)cyclohexyl]quinazolin-4-amine] | 0.015 µM
35 | N#Cc1ccc2ncnc(N[C@H]3CC[C@H](N4CCOC5(CC5)C4)CC3)c2c1 [Example 3-26, 4-{[trans-4-(4-oxa-7-azaspiro[2.5]oct-7-yl)cyclohexyl]amino} quinazoline-6-carbonitrile] | 0.046 µM
